Source: ChEMBL document CHEMBL1201862, “PubChem BioAssay data set” (2004)
The source made the active and inactive calls.

Experiments:
Leucine aminopeptidase = molecular target: T1, Leucine aminopeptidase (Plasmodium falciparum 3D7, UniProt Q8IL11); assay: P. falciparum M17LAP inhibitors, primary screen, biochemical, fluorogenic H-Leu-NHMec substrate, 1536-well (AID 1619); assay type: functional
T1 sequence (Q8IL11 whole entry): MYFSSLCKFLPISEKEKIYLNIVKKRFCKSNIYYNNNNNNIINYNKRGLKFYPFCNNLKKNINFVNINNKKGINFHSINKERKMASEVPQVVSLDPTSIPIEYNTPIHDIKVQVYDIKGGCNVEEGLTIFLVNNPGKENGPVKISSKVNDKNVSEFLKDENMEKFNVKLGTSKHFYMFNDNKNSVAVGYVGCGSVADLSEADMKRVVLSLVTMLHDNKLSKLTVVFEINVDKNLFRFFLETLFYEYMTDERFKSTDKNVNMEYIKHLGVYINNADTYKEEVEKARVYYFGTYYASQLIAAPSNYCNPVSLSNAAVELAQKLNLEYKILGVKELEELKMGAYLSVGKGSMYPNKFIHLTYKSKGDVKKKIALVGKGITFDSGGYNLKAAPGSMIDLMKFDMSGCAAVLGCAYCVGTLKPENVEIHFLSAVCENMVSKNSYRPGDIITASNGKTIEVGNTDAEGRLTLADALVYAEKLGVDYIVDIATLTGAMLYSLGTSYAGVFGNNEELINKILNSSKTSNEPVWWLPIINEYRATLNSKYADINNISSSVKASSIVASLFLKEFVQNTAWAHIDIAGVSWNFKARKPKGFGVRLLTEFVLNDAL

[1] = inhibitors of Bluetongue virus cytopathic effect, confirmation, arbovirus, BSR cells (AID 1250); assay type: functional;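 note: protection from viral cytopathic effect measured as cell viability by ATP luminescence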
[2] = molecular target: T2, Short transient receptor potential channel 4 (Mus musculus, UniProt Q9QUQ5); assay: mouse TRPC4 channel inhibitors, dose response, cell-based, HEK293 TRPC4/mu-opioid, Fluo-4 calcium (AID 434942); assay type: functional;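 note: potency of inhibitors blocking the TRPC4 calcium response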
T2 sequence (Q9QUQ5 whole entry): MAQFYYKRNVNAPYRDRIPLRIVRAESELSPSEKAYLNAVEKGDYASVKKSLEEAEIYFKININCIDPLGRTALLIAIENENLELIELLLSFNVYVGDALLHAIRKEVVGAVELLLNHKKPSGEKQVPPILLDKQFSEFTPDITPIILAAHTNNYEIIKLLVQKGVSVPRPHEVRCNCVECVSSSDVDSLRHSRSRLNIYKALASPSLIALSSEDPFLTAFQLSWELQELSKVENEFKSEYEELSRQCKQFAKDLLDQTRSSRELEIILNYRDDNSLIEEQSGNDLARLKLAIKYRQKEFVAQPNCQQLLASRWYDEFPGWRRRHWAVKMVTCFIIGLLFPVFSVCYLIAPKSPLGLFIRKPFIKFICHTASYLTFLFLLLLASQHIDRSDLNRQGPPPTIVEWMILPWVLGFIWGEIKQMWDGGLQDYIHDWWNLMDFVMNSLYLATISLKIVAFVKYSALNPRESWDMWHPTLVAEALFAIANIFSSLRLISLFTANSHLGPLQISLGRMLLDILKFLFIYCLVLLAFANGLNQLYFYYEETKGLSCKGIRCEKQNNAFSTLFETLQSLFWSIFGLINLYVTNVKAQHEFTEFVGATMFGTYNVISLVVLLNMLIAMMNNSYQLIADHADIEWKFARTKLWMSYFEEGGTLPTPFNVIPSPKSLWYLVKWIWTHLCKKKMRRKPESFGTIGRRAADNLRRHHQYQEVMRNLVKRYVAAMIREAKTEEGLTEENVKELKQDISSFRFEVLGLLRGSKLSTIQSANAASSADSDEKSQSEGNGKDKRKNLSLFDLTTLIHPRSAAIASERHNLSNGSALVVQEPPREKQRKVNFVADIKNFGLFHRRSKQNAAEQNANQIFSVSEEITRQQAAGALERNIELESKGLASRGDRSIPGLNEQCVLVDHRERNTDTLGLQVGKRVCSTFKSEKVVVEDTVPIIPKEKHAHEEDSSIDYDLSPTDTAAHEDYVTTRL

Cytochrome P450 2C9 = Cytochrome P450 2C9 (Homo sapiens, UniProt P11712); conditions: Potency
Bcl-2-like protein 10 = molecular target: T3, Bcl-2-like protein 10 (Homo sapiens, UniProt Q9HD36); assay: Biochemical TR3 FP assay of Bcl-B inhibitor potency, EC50 (AID 1243); assay type: functional
T3 sequence (Q9HD36 whole entry): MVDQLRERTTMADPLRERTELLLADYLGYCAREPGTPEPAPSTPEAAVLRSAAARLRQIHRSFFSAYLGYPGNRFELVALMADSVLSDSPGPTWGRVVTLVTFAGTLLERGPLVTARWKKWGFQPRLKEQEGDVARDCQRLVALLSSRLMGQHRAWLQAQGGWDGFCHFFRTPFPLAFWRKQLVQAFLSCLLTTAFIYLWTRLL

HEK293 = assay: Fluorescence-based counterscreen for potentiators or agonists of NPY-Y2: cell-based high-throughput dose response assay to identify inhibitors of cyclic nucleotide gated ion channel (CNGC) activity. In this assay, the parental HEK293 cell line transfected with a cyclic-nucleotide gated ion channel (CNGC)-based cAMP sensor is used to measure inhibition of isoproterenol-induced CNGC activity by test compound.; assay type: functional; conditions: Homo sapiens;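 note: stimulus is 1 µM isoproterenol at EC100 plus PDE inhibitor Ro 20-1724 at 25 µM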
[3] = molecular target: Neuropeptide Y receptor type 2 (Homo sapiens, UniProt P49146); assay: Fluorescence-based cell-based high-throughput dose response assay for agonists of NPY-Y2. [Related pubchem assays: 1703 (Screening assay (CNGC inhibitors).), 1359 (Screening assay (NPY-Y2 potentiators or agonists).), 1304 (Screening assay (NPY-Y1 potentiators or agonists).), 1710 (Screening assay (NPY-Y2 agonists).), 1791 (Summary AID.)]; assay type: functional
[4] = molecular target: Neuropeptide Y receptor type 1 (Homo sapiens, UniProt P25929); assay: Fluorescence-based counterscreen for agonists of NPY-Y2: cell-based high-throughput dose response assay for agonists of NPY-Y1.; assay type: functional
[5] = molecular target: T4, Neuropeptides B/W receptor type 1 (Homo sapiens, UniProt P48145); assay: Fluorescence-based dose response cell-based high throughput screening assay to identify antagonists of the G-protein coupled receptor 7 (GPR7). [Related pubchem assays: 1952 (Screening assay (GPR7 antagonists).), 1880 (Summary AID.)]; assay type: functional
T4 sequence (P48145 whole entry): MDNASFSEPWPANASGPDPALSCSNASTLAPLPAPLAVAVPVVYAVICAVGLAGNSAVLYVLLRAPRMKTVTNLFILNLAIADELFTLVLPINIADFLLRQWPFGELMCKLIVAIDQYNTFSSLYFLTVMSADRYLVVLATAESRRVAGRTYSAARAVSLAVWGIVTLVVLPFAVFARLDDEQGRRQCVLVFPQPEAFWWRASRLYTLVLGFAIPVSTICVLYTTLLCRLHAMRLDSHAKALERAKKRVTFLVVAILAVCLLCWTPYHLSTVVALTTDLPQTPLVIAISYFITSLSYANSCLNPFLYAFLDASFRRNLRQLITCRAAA

[6] = molecular target: Melanin-concentrating hormone receptor 1 (Homo sapiens, UniProt Q99705); assay: Fluorescence-based counterscreen for antagonists of the G-protein coupled receptor 7 (GPR7): cell-based high throughput dose response assay to identify antagonists of the melanin-concentrating hormone receptor 1 (MCHR1).; assay type: functional
Aminopeptidase N = molecular target: T5, Aminopeptidase N (Plasmodium falciparum FcB1/Columbia, UniProt O96935); assay: P. falciparum M1AAP inhibitors, biochemical, fluorogenic H-Leu-NHMec substrate, 1536-well (AID 1445); parameters: species or system Plasmodium falciparum 3D7, 3D7
T5 sequence (O96935 whole entry): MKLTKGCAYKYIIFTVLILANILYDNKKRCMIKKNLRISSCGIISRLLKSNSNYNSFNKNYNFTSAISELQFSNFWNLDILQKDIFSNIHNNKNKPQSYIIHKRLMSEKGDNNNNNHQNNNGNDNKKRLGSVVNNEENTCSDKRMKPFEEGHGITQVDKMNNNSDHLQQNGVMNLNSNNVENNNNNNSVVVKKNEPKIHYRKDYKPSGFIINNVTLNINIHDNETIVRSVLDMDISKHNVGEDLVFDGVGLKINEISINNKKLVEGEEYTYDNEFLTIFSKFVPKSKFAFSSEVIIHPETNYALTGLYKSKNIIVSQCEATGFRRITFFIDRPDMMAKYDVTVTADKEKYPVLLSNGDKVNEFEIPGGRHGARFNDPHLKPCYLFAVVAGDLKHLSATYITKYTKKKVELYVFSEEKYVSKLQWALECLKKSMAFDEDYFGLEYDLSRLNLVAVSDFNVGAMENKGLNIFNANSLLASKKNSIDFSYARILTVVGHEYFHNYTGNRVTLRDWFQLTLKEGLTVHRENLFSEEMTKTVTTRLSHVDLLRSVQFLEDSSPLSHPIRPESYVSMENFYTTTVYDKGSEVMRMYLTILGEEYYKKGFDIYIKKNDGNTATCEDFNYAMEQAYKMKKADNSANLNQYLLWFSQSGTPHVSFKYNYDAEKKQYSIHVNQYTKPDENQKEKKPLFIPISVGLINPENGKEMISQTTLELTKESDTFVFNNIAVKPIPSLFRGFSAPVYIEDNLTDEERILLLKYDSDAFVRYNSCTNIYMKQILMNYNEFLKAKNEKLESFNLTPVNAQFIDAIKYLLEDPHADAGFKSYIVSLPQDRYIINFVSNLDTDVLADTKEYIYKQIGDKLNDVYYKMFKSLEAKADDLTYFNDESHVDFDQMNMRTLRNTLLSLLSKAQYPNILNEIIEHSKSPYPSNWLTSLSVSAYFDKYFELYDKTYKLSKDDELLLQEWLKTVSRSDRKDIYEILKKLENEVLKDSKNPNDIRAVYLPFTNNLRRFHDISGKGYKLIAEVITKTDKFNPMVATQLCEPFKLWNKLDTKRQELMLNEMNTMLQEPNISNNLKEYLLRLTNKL

[7] = tested on: Streptococcus sp. 'group A'; assay: growth inhibition of control SK(-) GAS strain, dose response, counter-screen for streptokinase expression inhibitor project, luminescence, kanamycin, BacTiterGlo, confirmation (AID 1900); assay type: functional, organism-based
[8] = molecular target: Serine/threonine-protein phosphatase PP1-alpha catalytic subunit (Homo sapiens, UniProt P62136); assay: PP1 phosphatase inhibitors, dose response, biochemical, fluorescence (AID 2403);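 note: phosphatase turnover of OMFP into fluorescent 3-O-methylfluorescein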
Streptokinase A = molecular target: T6, Streptokinase A (Streptococcus pyogenes serotype M1, UniProt P10520); assay: S. pyogenes streptokinase expression inhibitors, potency, dose response, plasminogen activation absorbance, OD405 (AID 1914); assay type: functional, Streptococcus pyogenes M1 GAS;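 note: secreted streptokinase activity via plasminogen activation per viability signal from cell pellet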
T6 sequence (P10520 whole entry): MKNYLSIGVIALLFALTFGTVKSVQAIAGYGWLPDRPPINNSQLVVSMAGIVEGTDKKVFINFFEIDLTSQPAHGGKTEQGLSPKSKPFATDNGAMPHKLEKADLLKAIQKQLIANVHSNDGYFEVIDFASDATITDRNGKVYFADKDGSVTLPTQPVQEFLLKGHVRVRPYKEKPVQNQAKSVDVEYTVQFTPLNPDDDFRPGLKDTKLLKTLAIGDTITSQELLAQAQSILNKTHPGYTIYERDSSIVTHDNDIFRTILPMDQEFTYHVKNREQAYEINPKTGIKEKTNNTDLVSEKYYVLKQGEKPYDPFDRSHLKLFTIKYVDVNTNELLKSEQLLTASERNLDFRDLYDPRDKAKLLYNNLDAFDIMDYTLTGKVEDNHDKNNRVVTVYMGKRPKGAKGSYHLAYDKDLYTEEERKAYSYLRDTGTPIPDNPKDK

[9] = molecular target: Serine/threonine-protein phosphatase (Homo sapiens, UniProt Q9BPW0); assay: Counterscreen for inhibitors of PP1: fluorescence-based biochemical high throughput dose response assay to identify inhibitors of Protein Phosphatase 5 (PP5). [Related pubchem assays: 2034 (Summary (PP5 inhibitors)), 1987 (PP5 inhibitors in singlate), 2235 (PP1 inhibitors in singlate)]
[10] = molecular target: Induced myeloid leukemia cell differentiation protein Mcl-1 (Homo sapiens, UniProt Q07820); assay type: functional
Streptococcus = assay: Group A Streptococcus viability loss, dose response, counter-screen for streptokinase expression inhibitor project, luminescence, BacTiterGlo (AID 1915); assay type: functional, organism-based;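 note: potency for reduction of bacterial viability or growth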

Chain of Serine/threonine-protein phosphatase PP1-alpha catalytic subunit (P62136 whole entry): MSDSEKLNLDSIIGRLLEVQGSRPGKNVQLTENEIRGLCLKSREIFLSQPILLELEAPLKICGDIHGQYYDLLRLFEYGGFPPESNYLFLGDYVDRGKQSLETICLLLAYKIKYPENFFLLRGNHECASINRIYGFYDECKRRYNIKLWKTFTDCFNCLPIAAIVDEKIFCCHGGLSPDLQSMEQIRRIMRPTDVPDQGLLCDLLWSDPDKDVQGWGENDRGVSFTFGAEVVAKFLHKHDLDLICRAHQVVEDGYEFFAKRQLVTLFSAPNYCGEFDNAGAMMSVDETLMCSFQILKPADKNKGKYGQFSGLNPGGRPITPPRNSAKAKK
Chain of Neuropeptide Y receptor type 2 (P49146 whole entry): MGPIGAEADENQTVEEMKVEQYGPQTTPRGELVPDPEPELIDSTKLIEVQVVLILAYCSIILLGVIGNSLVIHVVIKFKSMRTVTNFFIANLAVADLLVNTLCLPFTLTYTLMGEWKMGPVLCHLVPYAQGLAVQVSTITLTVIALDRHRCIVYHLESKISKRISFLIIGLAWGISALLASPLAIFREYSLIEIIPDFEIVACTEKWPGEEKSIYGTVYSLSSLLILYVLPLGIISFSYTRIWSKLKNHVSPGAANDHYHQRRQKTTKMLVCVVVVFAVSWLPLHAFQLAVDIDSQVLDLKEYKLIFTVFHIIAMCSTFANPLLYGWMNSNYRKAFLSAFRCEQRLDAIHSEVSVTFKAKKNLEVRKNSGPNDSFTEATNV
Chain of Cytochrome P450 2C9 (P11712 whole entry): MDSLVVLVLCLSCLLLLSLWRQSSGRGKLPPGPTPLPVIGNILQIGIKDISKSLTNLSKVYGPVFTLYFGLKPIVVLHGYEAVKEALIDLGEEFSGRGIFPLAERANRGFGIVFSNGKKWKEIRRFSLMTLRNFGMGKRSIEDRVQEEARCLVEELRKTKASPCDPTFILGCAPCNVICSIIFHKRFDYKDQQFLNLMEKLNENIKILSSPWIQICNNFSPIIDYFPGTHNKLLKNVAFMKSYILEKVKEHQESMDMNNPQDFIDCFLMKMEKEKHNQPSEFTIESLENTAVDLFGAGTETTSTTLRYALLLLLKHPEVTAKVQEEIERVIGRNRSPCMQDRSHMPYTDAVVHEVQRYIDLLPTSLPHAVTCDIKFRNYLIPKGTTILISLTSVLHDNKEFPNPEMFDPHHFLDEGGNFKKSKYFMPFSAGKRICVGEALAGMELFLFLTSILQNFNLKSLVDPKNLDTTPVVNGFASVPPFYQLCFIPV
Chain of Serine/threonine-protein phosphatase (Q9BPW0 whole entry): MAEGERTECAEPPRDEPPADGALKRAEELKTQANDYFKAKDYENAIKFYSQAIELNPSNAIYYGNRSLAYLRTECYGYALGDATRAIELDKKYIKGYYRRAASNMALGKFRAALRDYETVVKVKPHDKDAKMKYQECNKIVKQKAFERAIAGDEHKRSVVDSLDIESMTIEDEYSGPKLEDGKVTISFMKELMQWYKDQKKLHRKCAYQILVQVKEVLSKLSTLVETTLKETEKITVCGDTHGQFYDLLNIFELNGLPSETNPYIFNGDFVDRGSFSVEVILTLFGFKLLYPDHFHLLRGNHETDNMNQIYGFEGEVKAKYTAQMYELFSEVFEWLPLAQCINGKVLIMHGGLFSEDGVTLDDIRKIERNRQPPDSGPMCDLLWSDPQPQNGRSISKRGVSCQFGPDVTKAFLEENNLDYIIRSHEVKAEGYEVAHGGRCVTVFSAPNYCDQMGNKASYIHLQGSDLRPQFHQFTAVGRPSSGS
Chain of Melanin-concentrating hormone receptor 1 (Q99705 whole entry): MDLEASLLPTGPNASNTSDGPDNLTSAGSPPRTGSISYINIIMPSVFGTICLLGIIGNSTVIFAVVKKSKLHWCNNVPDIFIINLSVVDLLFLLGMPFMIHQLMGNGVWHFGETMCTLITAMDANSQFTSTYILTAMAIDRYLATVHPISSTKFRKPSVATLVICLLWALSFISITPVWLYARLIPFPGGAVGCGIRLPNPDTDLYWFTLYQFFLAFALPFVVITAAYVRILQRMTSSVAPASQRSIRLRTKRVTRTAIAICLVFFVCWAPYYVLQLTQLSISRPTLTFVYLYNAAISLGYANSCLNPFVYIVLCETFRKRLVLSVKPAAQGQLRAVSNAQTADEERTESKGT
Chain of Induced myeloid leukemia cell differentiation protein Mcl-1 (Q07820 whole entry): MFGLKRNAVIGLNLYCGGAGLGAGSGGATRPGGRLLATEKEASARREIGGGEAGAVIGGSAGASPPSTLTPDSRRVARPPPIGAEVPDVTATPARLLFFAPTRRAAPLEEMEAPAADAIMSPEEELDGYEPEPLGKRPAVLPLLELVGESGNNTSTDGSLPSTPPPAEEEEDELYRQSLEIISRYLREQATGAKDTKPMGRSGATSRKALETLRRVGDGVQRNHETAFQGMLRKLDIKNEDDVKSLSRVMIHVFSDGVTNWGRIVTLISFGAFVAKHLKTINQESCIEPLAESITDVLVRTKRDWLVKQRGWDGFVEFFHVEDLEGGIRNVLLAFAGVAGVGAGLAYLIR
Chain of Neuropeptide Y receptor type 1 (P25929 whole entry): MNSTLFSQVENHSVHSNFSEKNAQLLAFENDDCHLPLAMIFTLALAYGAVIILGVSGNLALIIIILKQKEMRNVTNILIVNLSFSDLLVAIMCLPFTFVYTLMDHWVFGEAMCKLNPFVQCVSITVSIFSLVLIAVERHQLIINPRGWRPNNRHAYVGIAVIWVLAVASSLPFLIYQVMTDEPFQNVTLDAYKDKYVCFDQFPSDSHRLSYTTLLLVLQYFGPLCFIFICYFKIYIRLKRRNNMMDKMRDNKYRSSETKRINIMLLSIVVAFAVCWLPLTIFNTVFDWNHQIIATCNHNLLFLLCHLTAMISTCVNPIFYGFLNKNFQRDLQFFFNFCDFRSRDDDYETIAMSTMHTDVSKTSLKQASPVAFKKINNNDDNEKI

With Cc1ccc(-c2csc(NC(=O)C3CC=CCC3C(=O)O)c2C(=O)OC(C)C)cc1 (configuration not stated) the IC50 (Leucine aminopeptidase) was 9.13 µM (active), the IC50 [1] was 39.4 µM (active) and the EC50 [2] was 5.96 µM (active).

In the case of Cc1ccccc1OC1C=CC(C#Cc2ccc(Br)cc2)OC1CO (configuration not stated), the AC50 (Cytochrome P450 2C9) is reported as 3.98 µM (inconclusive).

For CN1CCN(CN2C(=O)/C(=N\NC(=O)CSc3nc4ccccc4s3)c3ccccc32)CC1, the EC50 (Bcl-2-like protein 10) was 12.9 µM (active).

For Fc1ccc2c(c1)/C(=N/Nc1ccccn1)CCS2, the EC50 (HEK293) was 7.7 µM (active), the EC50 [3] was 11.3 µM (not active) and the EC50 [4] was 12.4 µM (not active).

For CCCCNc1nc2ccccc2n1CC(=O)Nc1c(C)cccc1CC, the IC50 [5] was > 43.8 µM (not active) and the IC50 [6] was 31.7 µM (not active).

With CCOC(=O)c1sc2nc3c(SCC(=O)O)cc(C(=O)c4cc(F)ccc4O)cn3c(=O)c2c1C the IC50 (Aminopeptidase N) was 21.9 µM (active), the EC50 [7] was 1.86 µM (active) and the IC50 [8] was 5.11 µM (active). The EC50 (Streptokinase A) was 15.4 µM (active), the IC50 [9] was > 67 µM (not active) and the IC50 [10] was 2.63 µM (active). For the same molecule, the EC50 (Streptococcus) was 141 µM (active).
